Assay [1] relates to pol-β null cells (88TAg). The experiment in a line: Growth inhibition assay (modified MTT, MTS). In kind it is cell-based, mouse. The note with it: MTS viability 48 hr after 1-2 hr exposure. As to the method:
(§1) Culture Conditions and Cell Cytotoxicity Assays. Transformed MEFs were cultured at 37° C. in a humidified incubator with 10% CO2 in DMEM supplemented with 10% fetal bovine serum, penicillin (50 units/ml), streptomycin (50 μg/ml) and Glutamax (4 mM). Human embryonic kidney cells (293T) were cultured similarly in DMEM supplemented with 10% fetal bovine serum, penicillin (50 units/ml), streptomycin (50 μg/ml) and Glutamine (4 mM). TMZ, MMS and MMC induced cytotoxicity was determined by growth inhibition assays. Briefly, cells were seeded in 96-well dishes at 1250 cells/well. After 24 hours, cells (quadruplicate wells) were exposed to serial dilutions of damaging agent in growth media for 1-2 hours (or as indicated in the text) at 37° C. Drug-containing medium was replaced with fresh medium and the plates were incubated at 37° C. for 48 hours at which point the total cell number was determined by a modified MTT assay (MTS; Promega). Metabolically active cells were quantified by the bioreduction of the MTS tetrazolium compound by recording absorbance at 490 nm using a microplate reader. Results were calculated from the average of four separate experiments and are reported as the % of treated cells relative to the cells in control wells (% Control).

The test system of assay [2] is γ-H2AX. Kind of assay: γ-H2AX immunoblotting. It is filed as cell-based, mouse. As to conditions: MMS 1 hr or TMZ 2 hr exposure. The protocol:
For γ-H2AX immunoblotting, protein was prepared as follows: briefly, 6×10^5 cells were seeded into 150 mm dishes and incubated for 24 hours at 10% CO2 at 37° C. Cells were treated with MMS and TMZ for 1 or 2 hr respectively, and whole cells were scraped from the plates in 1×PBS, washed, and immediately placed on dry ice. Thawed pellets were re-suspended in a 1:1 ratio of RIPA buffer and Laemmli buffer. Samples were boiled for 5 minutes and protein from an equal cell number was added to each well. Protein was separated by electrophoresis in a 12% SDS-polyacrylamide gel and electro-transferred to a […] nitrocellulose membrane (Trans-Blot, Bio-Rad). Membranes were blocked for 20 minutes in a 3% dried milk/TBS solution at room temperature and incubated with 0.5-1 μg/ml of anti-phospho-H2AX (Serine 139) (Upstate) prepared in TBS/3% dried milk and 0.1% Tween20 over night at 4° C. Membranes were washed twice with water and incubated with horseradish peroxidase (HRP)-conjugated secondary antibody (goat anti-rabbit HRP; Bio-Rad) at room temperature for 1.5 hour. Following a series of washes with water and TBS, HRP activity was detected using the Super Signal West Femto reagent (Pierce). Each membrane was re-probed with anti-PCNA to correct for differences in protein loading, and densitometry was used to quantitate with Quantity One 1-D analysis software (BioRad).
Background: In western blotting, separated proteins are transferred to a membrane and probed.

For assay [3], the system named is MDA-MB-231 cells with Mpg/Aag over-expression combined with pol-β knockdown. The experiment in a line: Temozolomide growth inhibition assay (MTS). In kind it is cell-based, human. The note with it: TMZ 48 hours; compared to the parental MDA-MB-231 cells. The protocol:
Culture Conditions and Cell Cytotoxicity Assays. Human Mpg over-expression, human pol-β knockdown and human pol-β over-expressing MDA-MB-231 breast cancer cell lines were cultured at 37° C. in a humidified incubator with 5% CO2 in RPMI 1640 (Cambrex Biosciences Group, Walkersville, Md.) supplemented with 10% heat inactivated fetal bovine serum and gentamicin (10 μg/ml). Temozolomide induced cytotoxicity was determined by growth inhibition assays. Briefly, cells were seeded in 96-well dishes at 2000 cells/well. After 24 hours, cells (quadruplicate wells) were exposed to serial dilutions of Temozolomide in growth media at 37° C. for 48 hours at which point the total cell number was determined by a modified 3-(4,5-dimethylthiazol-2-yl)-2,5-diphenyltetrazolium bromide (MTT) assay (MTS; Promega Madison, Wis.) (Cory et al., Cancer Communications; 3(7):207-12 (1991)). Metabolically active cells were quantified by the bioreduction of the MTS tetrazolium compound by recording absorbance at 490 nm using a microplate reader. Results were calculated from the average of four separate experiments and are reported as the % of treated cells relative to the cells in control wells (% Control).

The subject of assay [4] is Wt pol-β knockdown cells over-expressing hAag (wt hAag.2/polβ-KD.4, wt hAag.3/polβ-KD.4). The experiment in a line: TMZ growth inhibition assay (modified MTT, MTS). In kind it is cell-based, mouse. The note with it: for IC50: Mus musculus. From the text:
Cell Lines and Transfection Conditions. Transformed MEF cell lines (92TAg, Wt; 88TAg, pol-β null; 308TAg, Aag null and 283TAg, pol-β null/Aag null) have been described previously and are available from the ATCC. 293T cells were a gift from J. O'Bryan (NIEHS, NIH). Primary cultures of pol-λ, null MEFs were a kind gift from C.A. Reynaud (Faculte de Medecine Necker-Enfants Malades, Paris, France). The pol-ι null MEFs were derived from C129SvJ mice as described previously and identified by PCR to confirm the pol-ι null mutation. These were immortalized by SV40 large T-antigen (370TAg, pol-λ, null; 369TAg, pol-ι null) as described previously. Human Aag over-expressing cell lines were prepared as follows: briefly, 1.5×10^5 cells were seeded into 60 mm dishes and incubated for 24-30 hours at 10% CO2 at 37° C. The Aag expression plasmid (pRS1422) was transfected using FuGene 6 Transfection Reagent (Roche Diagnostic Corp) according to the manufacturer's instructions. Stable cell lines were selected in G418 (600 μg/ml) for 2 weeks, individual clones were amplified and 20 μg of nuclear extract was analyzed by immunoblotting for the expression of human Aag protein and then re-probed for expression of pol-β and PCNA.
Transfection of the pSuper siRNA plasmids was completed as follows: Briefly, 1.5×10^5 cells were seeded into 60 mm dishes and incubated for 24-30 hours at 10% CO2 at 37° C. […] For transient transfections, cells were lysed 24 hours post transfection by boiling in Laemmli buffer and analyzed by immunoblotting for the expression of the V5-pol-β transgene using anti-V5 (Invitrogen). […] Individual clones were amplified and 20 μg of nuclear extract was analyzed by immunoblotting for the expression of endogenous pol-β protein using the Nucbuster nuclear protein extract reagent (Novagen) and then re-probed for expression of PCNA as a loading control.
Culture Conditions and Cell Cytotoxicity Assays. […] TMZ, MMS and MMC induced cytotoxicity was determined by growth inhibition assays. […]

Assay [5] has as its system Wt cells (92TAg). The experiment in a line: TMZ growth inhibition assay (modified MTT, MTS). In kind it is cell-based. As to conditions: Mus musculus, TMZ exposure 48 hr. As to the method: as §1

By IC50 is commonly meant the point on the concentration scale where inhibition reaches its midpoint. Read a high IC50 as weaker potency.

Each structure is given as a SMILES string.

Turning to `CO[C@@]12[C@H](COC(N)=O)C3=C(C(=O)C(C)=C(N)C3=O)N1C[C@@H]1N[C@@H]12` [MMC, Mitomycin C], the “sensitivity of pol-β null cells relative to Wt and other null cells” value in assay [1] is “equally sensitive”.
`COS(C)(=O)=O` [MMS, Methyl methanesulfonate]: the “γ-H2AX expression in pol-β deficient cells as compared to Wt cells” value in assay [2] is reported as “clear increase”.
On to `Cn1nnc2c(C(N)=O)ncn2c1=O` [TMZ, temozolomide], for which the “decrease in IC50” value in assay [3] was about 10 fold. Besides, the IC50 was 1250 µM in assay [4] (TMZ exposure 2 hr, viable cells after 48 hr, wt hAag.2/polβ-KD.4 and wt hAag.3/polβ-KD.4 cells); about 700 µM in assay [4] (TMZ exposure 48 hr, wt hAag.3/Polβ-KD.4 cells); 2.6 mM in assay [5]. The TMZ efficacy improved in assay [4] (TMZ exposure 48 hr, hAag over-expression plus pol-β knockdown compared with Wt cells) is recorded as about 4 fold.

These data come from patent US20100048682A1, “INHIBITING DNA POLYMERASE BETA TO ENHANCE EFFICACY OF ANTICANCER AGENTS” (UNIVERSITY OF PITTSBURGH - OF THE COMMONWEALTH SYSTEM OF …, priority 2005, published 2010).
